The results in this text go back to US6680311B1, “Cryptophycin compounds” (Eli Lilly and Company, priority 1996, dated 2004).

Common to all, as to assay type: physicochemical
Data set [1] can be described thus: Aqueous solubility and stability at pH 4-8. As for the experimental part: A comparison of stability characteristics between 1 and 12 in aqueous Ph ranging from 4-8 was determined at room temperature for 6 hours.
Data set [2] can be described thus: Solubility in excipient / parenteral vehicles. The note with it: Propylene Glycol 15 % v/v, Polyethylele Glycol 3000 20 % v/v, volume adjusted 0.05 M acetate buffer.
Data set [3] can be described thus: Stability in parenteral formulation. The following applies: formulation 6 of Table 4, up to 3 weeks, preliminary.

Structures can show the parent of a compound that is named as a salt.

Regarding `COc1ccc(C[C@H]2NC(=O)/C=C/C[C@@H]([C@H](C)[C@@H](OC(=O)CN)[C@@H](Cl)c3ccccc3)OC(=O)[C@H](CC(C)C)OC(=O)C(C)(C)CNC2=O)cc1Cl` [Compound 12, Cryptophycin 55 Glycinate Hydrochloride Salt], the “course of aqueous solubility over the pH range studied” value in data set [1] (aqueous pH 4-8, room temperature, 6 hours) was “remained substantially steady”. In addition, the “stability in an aqueous environment” value in data set [1] (physiological pH range, over longer periods of time) is listed as “better stability”. Besides, the “Comparative solubility, vehicle 2” value in data set [2] is greater than 2000 µg/mL. For the same compound, the “stability in formulation 6” value in data set [3] is on record as “acceptable stability”.
